Laboratory results reported in publication PMC10778976, “BAY-3827 and SBI-0206965: Potent AMPK Inhibitors That Paradoxically Increase Thr172 Phosphorylation” (International Journal of Molecular Sciences, 2023).
Values after ≈ are worked out from the molar mass of the structure shown.

Key:
[1] = target: T1, LKB1 (human LKB1:STRADα:MO25α complex) (Homo sapiens, UniProt Q15831); details: single fixed inhibitor concentration (0.25 µM); cited from earlier work
T1 construct: made in house
T1 sequence (Q15831 1-433): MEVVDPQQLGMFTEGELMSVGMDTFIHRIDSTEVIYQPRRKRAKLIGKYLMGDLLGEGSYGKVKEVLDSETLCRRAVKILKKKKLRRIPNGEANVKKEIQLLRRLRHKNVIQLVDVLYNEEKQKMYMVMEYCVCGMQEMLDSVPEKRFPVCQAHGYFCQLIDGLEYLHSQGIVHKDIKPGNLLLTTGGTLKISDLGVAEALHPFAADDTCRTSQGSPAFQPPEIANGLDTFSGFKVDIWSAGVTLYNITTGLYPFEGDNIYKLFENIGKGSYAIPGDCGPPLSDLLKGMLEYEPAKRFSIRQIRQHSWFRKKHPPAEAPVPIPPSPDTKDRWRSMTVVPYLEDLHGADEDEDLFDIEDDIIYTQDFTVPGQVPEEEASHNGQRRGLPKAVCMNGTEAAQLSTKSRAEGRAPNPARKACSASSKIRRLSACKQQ
T1 sequence (Q7RTN6 1-431 partner): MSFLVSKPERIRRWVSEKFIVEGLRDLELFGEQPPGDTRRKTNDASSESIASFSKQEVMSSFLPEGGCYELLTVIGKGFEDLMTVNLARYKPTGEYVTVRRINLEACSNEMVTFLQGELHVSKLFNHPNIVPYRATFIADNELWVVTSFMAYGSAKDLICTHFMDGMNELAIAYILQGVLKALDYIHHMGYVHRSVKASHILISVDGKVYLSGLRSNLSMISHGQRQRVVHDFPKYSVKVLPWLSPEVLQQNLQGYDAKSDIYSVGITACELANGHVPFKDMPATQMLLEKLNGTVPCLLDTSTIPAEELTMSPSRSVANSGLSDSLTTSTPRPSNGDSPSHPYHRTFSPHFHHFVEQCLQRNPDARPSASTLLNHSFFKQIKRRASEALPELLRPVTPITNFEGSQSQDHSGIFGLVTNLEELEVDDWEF
T1 sequence (Q9Y376 1-341 partner): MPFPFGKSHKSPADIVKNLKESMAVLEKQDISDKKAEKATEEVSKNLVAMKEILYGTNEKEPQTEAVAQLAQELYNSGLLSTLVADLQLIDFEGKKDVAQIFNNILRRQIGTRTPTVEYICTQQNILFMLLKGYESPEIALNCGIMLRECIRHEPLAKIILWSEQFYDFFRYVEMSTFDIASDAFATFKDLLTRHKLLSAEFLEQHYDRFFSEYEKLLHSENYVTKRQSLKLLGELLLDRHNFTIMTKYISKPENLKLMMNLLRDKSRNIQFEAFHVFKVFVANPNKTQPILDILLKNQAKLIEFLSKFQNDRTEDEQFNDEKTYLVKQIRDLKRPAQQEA

[2] = Aqueous solubility; format: physicochemical; details: aqueous medium (not further specified)
[3] = Pharmacokinetic study in mice, blood levels by LC:MS; format: in vivo, NOD-SCID mice; details: 10 mg/kg oral gavage after 1-aminobenzotriazole 50 mg/kg
Description: All experiments with live animals were approved in advance by the Ethical Review Committee of the University of Dundee in accordance with the UK Animal (Scientific Procedures) Act 1986. Two female mice of the NOD-SCID strain were obtained from Charles River Laboratories, UK. The animals were maintained under a 12 h light/12 h dark cycle. The animals were allowed ad libitum access to food (RM1; Special Diet Services, UK) and water. Temperature and relative humidity were maintained between 20 and 24 °C and 45 and 65%, respectively. All animals received a minimum of 14 days acclimatization prior to the start of the study. 1-Aminobenzotriazole was dissolved on the day of dosing in Milli-Q ultrapure water at a concentration of 10 mg/mL and dosed via oral gavage at a dose level of 50 mg/kg. BAY-3827 was suspended in 0.5% hydroxypropylmethylcellulose (Methocel K15M Premium USP/EP; Colorcon) in water, at a concentration of 2 mg/mL. The BAY-3827 formulation was dosed via oral gavage at a dose level of 10 mg/kg, 30 min after the administration of 1-aminobenzotriazole. The animals were observed regularly after dose administration. […]
A Waters Acquity Performance Liquid Chromatography coupled to a Waters Xevo TQ-S tandem mass spectrometer was used for the quantification of BAY-3827, using donepezil hydrochloride as an internal standard. […]
Calibration samples, QC samples, blanks, double blanks, and study samples were extracted through protein precipitation. […] The resultant supernatant from the calibration samples, QCs, double blanks, and blanks (200 µL) and study samples (80 µL) was then transferred to HPLC glass vials containing Milli-Q water (100 µL or 40 µL, respectively) to reduce the solvent strength ready for UHPLC/MS analysis.
The sample concentrations were determined via a linear regression (weighting: 1/x) on the calibration samples using Waters TargetLynx application (v4.2). […] The lower limit of quantification (LLoQ) was determined as the analyte response with ≥three times the analyte response of the blanks (plasma with internal standard but not analyte). […]

solubility [2] [µg/mL] | blood concentration ([3]; after 4–8 h) [nM] | peak blood concentration (mean) ([3]; at 60 min) | concentration at 8 h ([3]; female, NOD-SCID, mouse, whole blood, after 8 h) [nM] | SMILES | inhibition of LKB1 [1]
– | – | – | – | CNC(=O)c1ccccc1Oc1nc(Nc2cc(OC)c(OC)c(OC)c2)ncc1Br [SBI-0206965] | did not inhibit
0.3 (≈ 0.64 µM) | 20 to 30 | 90 nM and ≈ 90 nM | 20 | CCc1ccccc1C(=O)Nc1n[nH]c2c(C)c(F)c(C3C(C#N)=C(C)N(C)C(C)=C3C#N)cc12 [BAY-3827] | –
